# Where two headings read alike, the source gives them in different places.
# How the values were obtained:
# Cell Line A = tested on: Cell Line A
# Protocol: Cell Line A expressed the polypeptide Neublastin. […] Feed medium was added daily from Day 2 to Day 12 to the cell culture. […] Initial cell density was one million cells (1e6).
# Cell Line B [1] = tested on: Cell Line B
# Protocol: Cell Line B expressed the polypeptide Lingo. […] Feed medium was added daily from Day 1 to Day 15 to the cell culture. […] Initial cell density was one million cells (1e6).
# Cell Line B [2] = tested on: Cell Line B; remark: listed apart in the source
# Cell Line B [3] = assay: Alternative antioxidants as replacement for hypotaurine, Cell Line B waste accumulation and culture performance; assay type: cell-based
# Protocol: Taurine is the by-product of hypotaurine metabolism. Therefore, cell culture performance when 8 mM taurine was added to the feed medium was compared to cell culture performance when 8 mM of hypotaurine was added to the feed medium. Initial cell density was one million cells (1e6).
# Cysteamine is a precursor of hypotaurine. […] Initial cell density was one million cells (1e6). The effects of glutathione, another type of antioxidant, were also explored.
# CHO cells = assay: Fed-batch culture of CHO cells with GABA-supplemented feed medium; assay type: cell-based, Chinese hamster
# Protocol: The impact of gamma-aminobutyric acid (GABA) levels in the culture on cell density (growth), viability, and lactate concentration was evaluated in CHO cells in a fed-batch process (FIG. 9).
# Cryopreserved CHO cells were thawed and maintained in 500 mL, 1000 mL or 3000 mL shake flasks with 100 mL, 200 mL or 1000 mL working volumes using cell culture medium CM3 and were passaged every 2 to 4 days. For maintenance cultures, the incubator was controlled at 36° C. and 5% CO2. A 5 liter (L) glass Applikon vessels using Finesse TruBio DV controllers (Finesse Solutions, San Jose, Calif.) were used for the fed-batch process. Bioreactors were seeded with an initial working volume of 2.5 L at a constant seed. For the control process, feed medium, CF2b, was given on day 3, day 5 and daily thereafter (starting on day 6) until the day before harvest and culture termination. The control process lasted 15 days with harvest and culture termination on day 15. CF2b is designated as a complete feed, comprised of all necessary nutritional elements including glucose, amino acids, vitamins, and metals. For GABA culture, feed medium was supplemented with 8 mM of GABA. The GABA culture lasted 17 days with harvest and culture termination on day 17. The complete feed amount was calculated as a predetermined fixed percentage based on culture volume. Glucose is maintained by the feeding strategy above 2 g/L in general by the bolus feeds and is not limiting. Culture temperature was set at 35° C. and medium pH was controlled at 7.1±0.2 by the addition of either 1 M sodium carbonate or CO2 gas. Dissolved oxygen (DO) was maintained at 30% with air sparge, enriched with oxygen as necessary, through a drilled hole sparger. Agitation was maintained between 200 and 400 rpm throughout the culture to limit total gas flow. An air overlay was maintained between 0.005 and 0.02 gas volume flow per unit of liquid volume per minute (vvm).
# Cell Line B [4] = assay: Fed-batch culture of Cell Line B with hypotaurine feed medium; assay type: cell-based
# Protocol: The control feed medium contained 0 mM hypotaurine. The hypotaurine feed medium contained 8 mM hypotaurine. […] The concentration of hypotaurine in the bioreactor on Day 16 was approximately 2.7 mM. […] Initial cell density was one million cells (1e6). The effects of hypotaurine were evident starting on Day 10.
# [5] = 9 mM choline chloride feed medium vs control feed with 3 mM choline chloride
# [6] = 18 mM choline chloride feed medium vs control feed with 3 mM choline chloride
# [7] = feed medium supplemented with 8 mM GABA vs control
# [8] = 8 mM hypotaurine feed medium vs control feed with 0 mM hypotaurine
smiles,measurement,setting,value
"C[N+](C)(C)CCO.[Cl-] [Choline, choline chloride]",day from which the effects were evident,Cell Line A; 9 mM choline chloride feed medium,3 days
same,ammonium accumulation,Cell Line A; [5],lower
same,viability,Cell Line A; [5],higher
same,titer,"Cell Line A; 9 mM choline chloride feed medium vs control feed with 3 mM choline chloride, Neublastin",higher
same,growth (cell density),"Cell Line A; 9 mM choline chloride feed medium vs control feed with 3 mM choline chloride, fed daily Day 2 to Day 12",higher
same,Day 3 (Effective) Choline Conc.,"Cell Line A; concentration in culture on Day 3, when effects became evident",0.90 mM
same,day from which the effects were evident,Cell Line B [1]; 18 mM choline chloride feed medium,9 days
same,ammonium accumulation,Cell Line B [1]; [6],lower
same,viability,Cell Line B [1]; [6],higher
same,titer,"Cell Line B [1]; 18 mM choline chloride feed medium vs control feed with 3 mM choline chloride, Lingo",slightly higher
same,growth (cell density),"Cell Line B [1]; 18 mM choline chloride feed medium vs control feed with 3 mM choline chloride, fed daily Day 1 to Day 15",higher
same,Day 9 (Effective) Choline Conc.,"Cell Line B [1]; choline used alone, concentration in culture on Day 9, when effects became evident",4.65 mM
same,Effective Choline Conc.,"Cell Line B [2]; Day 6, high seed",4.0 mM
same,culture viability crash,"Cell Line B [2]; high seed 8×10^6 vc/mL, after day 12",occurred after day 12
"NCCS [Cysteamine, cysteamine]","cell culture performance (growth, viability, ammonium concentration, titer) as replacement for hypotaurine",Cell Line B [3]; 3 mM cysteamine/18 mM choline chloride in feed vs 8 mM hypotaurine and 18 mM choline chloride,not able to serve as replacements for hypotaurine
"NCCCC(=O)O [GABA, Gamma-Aminobutyric Acid]",growth (viable cell density),CHO cells; feed medium CF2b supplemented with 8 mM GABA vs unsupplemented control feed,higher
same,delay of the onset of a high lactate phenotype compared to control,CHO cells; feed medium supplemented with 8 mM GABA,about 2 days
same,lactate accumulation,CHO cells; [7],lower
same,viability,CHO cells; [7],higher
same,culture duration (harvest and culture termination),"CHO cells; feed medium supplemented with 8 mM GABA, control process lasted 15 days",17 days
"NCCS(=O)O [Hypotaurine, hypotaurine]",day from which the effects were evident,Cell Line B [4]; 8 mM hypotaurine feed medium,10 days
same,ammonium accumulation,Cell Line B [4]; [8],lower
same,titer,Cell Line B [4]; [8],higher
same,viability,Cell Line B [4]; [8],higher
same,growth (cell density),"Cell Line B [4]; 8 mM hypotaurine feed medium vs control feed with 0 mM hypotaurine, fed daily Day 1 to Day 15",higher
same,Day 10 (Effective) Hypotaurine Conc.,"Cell Line B [4]; hypotaurine used alone, concentration in culture on Day 10, when effects became evident",2.5 mM
N[C@@H](CCC(=O)N[C@@H](CS)C(=O)NCC(=O)O)C(=O)O [glutathione],"cell culture performance (growth, viability, ammonium concentration, titer) as replacement for hypotaurine",Cell Line B [3]; 1.3 mM glutathione/18 mM choline chloride in feed vs 8 mM hypotaurine and 18 mM choline chloride,not able to serve as replacements for hypotaurine
NCCS(=O)(=O)O [taurine],"cell culture performance (growth, viability, ammonium concentration, titer) as replacement for hypotaurine",Cell Line B [3]; 8 mM taurine in feed medium vs 8 mM hypotaurine in feed medium,not able to serve as a replacement for hypotaurine

# — US20170327786A1 (Biogen MA Inc., priority 2014, published 2017)
